Measurements taken from patent publication US6875891B2, “Process for preparing highly water soluble double salts of hydroxycitric acid particularly alkali and alkaline earth metal double salts” (Laila Impex, priority 2003, dated 2005).

Columns and labels:
[1] = equilibration between free acid form and lactone form when dissolved in water; type: physicochemical
[2] = background statement on known salts; cited from earlier work
[3] = background statement; cited from earlier work

calcium/potassium double salt of hydroxycitric acid [Ca/K double salt]
equilibration between free form and lactone form of hydroxycitric acid [1]: does not equilibrate between the free form and the lactone form

O=C([O-])C[C@@](O)(C(=O)[O-])[C@H](O)C(=O)[O-].O=C([O-])C[C@@](O)(C(=O)[O-])[C@H](O)C(=O)[O-].[Ca+2].[Ca+2].[Ca+2] [calcium salt, calcium salt of hydroxycitric acid]
solubility in water [2]: poorly soluble in water

O=C([O-])C[C@@](O)(C(=O)[O-])[C@H](O)C(=O)[O-].[K+].[K+].[K+] [tripotassium salt]
hygroscopicity [3]: highly hygroscopic
